Reference: paper PMC6419424, “Rational protein design of Bacillus sp. MN chitosanase for altered substrate binding and production of specific chitosan oligomers” (Journal of Biological Engineering, 2019)

Target: T1, CSN (BspCsnMN) (Bacillus sp. MN, UniProt H9CXV8)
T1 construct: GH8 chitosanase (EC 3.2.1.132), Strep-tag II fusion (pET-22b(+)::StrepII-csn), expressed in E. coli Rosetta 2 (DE3), Strep-Tactin purified
Test: UHPLC-ELSD-ESI-MS product quantification, Hill fit
Format: biochemical
Conditions: 40 mM sodium acetate pH 6, 30 °C, 10 min

T1 sequence (H9CXV8 entry or part of it): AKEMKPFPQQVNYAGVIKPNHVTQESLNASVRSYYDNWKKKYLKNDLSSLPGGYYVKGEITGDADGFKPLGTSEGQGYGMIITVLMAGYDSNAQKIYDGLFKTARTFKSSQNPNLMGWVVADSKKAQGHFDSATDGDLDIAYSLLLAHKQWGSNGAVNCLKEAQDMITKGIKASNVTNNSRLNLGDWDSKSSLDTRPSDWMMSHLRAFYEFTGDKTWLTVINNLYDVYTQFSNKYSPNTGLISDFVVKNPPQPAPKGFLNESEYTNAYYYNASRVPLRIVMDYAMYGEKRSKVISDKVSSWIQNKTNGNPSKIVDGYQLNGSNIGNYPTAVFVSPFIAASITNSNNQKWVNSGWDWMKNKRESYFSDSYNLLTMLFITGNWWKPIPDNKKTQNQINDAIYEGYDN

Structure (SMILES): N[C@H]1[C@H](O[C@H]2[C@H](O)[C@@H](N)[C@H](O[C@H]3[C@H](O)[C@@H](N)[C@H](O[C@H]4[C@H](O)[C@@H](N)[C@H](O[C@H]5[C@H](O)[C@@H](N)C(O)O[C@@H]5CO)O[C@@H]4CO)O[C@@H]3CO)O[C@@H]2CO)O[C@H](CO)[C@@H](O)[C@@H]1O (stereo partly shown) [D5]
- UHPLC-ELSD-ESI-MS product quantification, Hill fit: CSN showed high activity on the polymer, and it was even slightly more active on D5
